The results in this text go back to patent US20090054512A1, “USE OF ORGANIC COMPOUNDS” (priority 2006, published 2009).

This assay concerns patients with type 2 diabetes. As to the kind of experiment: Randomized, double-blind, two-period crossover clinical study of 100 mg vildagliptin once daily in the morning or the evening. It counts as in vivo, human.

For the compound `N#C[C@@H]1CCCN1C(=O)CNC12CC3CC(CC(O)(C3)C1)C2` [vildagliptin, (S)-1-[(3-hydroxy-1-adamantyl)amino]acetyl-2-cyano-pyrrolidine], the “overnight HGP (hepatic glucose production) reduction” value (administered before or with the evening meal, especially patients with baseline HbA1c>8.0%) is “unexpected additional benefit on the overnight HGP reduction”. The “overnight hepatic glucose production” value (at least 100 mg before or with the morning meal, or before or with the lunch, type 2 diabetes, especially baseline HbA1c>8.0%) is reported as “can be reduced”.
